Measurements published in patent US5624924A, “Quinobenzothiazine antineoplastic agents” (priority 1994, dated 1997).
Values joined by “and” are separate entries in the source; they are usually repeats but may differ in a detail not shown here. Identical values can stand only once. Counter-ions that a name gives are not always drawn. Blank lines part the entries; values can stand above or below the molecule they belong to.

What was measured:
Aqueous solubility = type: physicochemical; conditions: water
Excerpt: The effect of peptidyl substitution on the solubility of the compounds of the invention was examined by dissolving samples thereof in water.

P388 ascitic leukemia = experiment: In vivo activity against systemic tumor P388; parameters: species or system mouse; conditions: 20 mg/kg IP once daily, five days; positive control
Description: Prior to testing, P388 was propagated intraperitoneally in female DBA2 mice. The ascitic tumors were intraperitoneally injected in female B6 D2 F1 mice at a concentration of 10^6 cells per mouse. The mice were treated with antiumor agents administered once daily for five consecutive days, with the antineoplastic 5-fluorouracil used as a positive control.
All drugs were administered intraperitoneally in 5% aqueous dextrose or other suitable diluent. Drug efficacy was evaluated based on prolongation of mean survival time (MST). Improvement of MST was calculated as % MST(T/C), the percent ratio of mean survival times of test (T) versus control (C) mice. Compounds having % MST(T/C) values greater than 125 are considered to have significant activity. The antitumor activity of the two compounds in the P388 systemic leukemia model is illustrated in Table 3 below.

M5076 ovarian sarcoma = experiment: In vivo activity against M5076 implanted intraperitoneally (Example 44); parameters: species or system mouse
Description: (§1) The title compound of Example 37 above was tested against solid tumors in mice, using 1,3-bis(2-chloroethyl)-1-nitrosourea (BCNU) as a positive control. The tumor lines were M5076, an ovarian sarcoma implanted intraperitoneally (IP), and C-26, a colon adenocarcinoma, implanted intraperitoneally (IP) and subcutaneously (SC) in separate trials.
(§2) All drugs were administered in 5% aqueous dextrose or other suitable diluent. Drug efficacy was determined by prolonged survival times of the test animals or reduced tumor mass as compared to negative controls. Test groups consisted of 10 mice. Control groups consisted of 20 mice. Animals were of one sex and of similar weight. Prior to testing, the tumor cell lines were propagated in BALB/cj mice. Tumor implants were aliquots of a donor pool brei,
(§3) In the IP trials, the mean survival time (MST) of the groups of mice was determined, not counting animals surviving at the conclusion of the trial, and the mean lifespan comparison value of % MST(T/C) calculated, which value represents the ratio of treated to control group MST's expressed as a percentage.
For M5076 ovarian sarcoma, the tumor was implanted IP into BDF1 mice on day 0. The test compound was administered four times a day IP from day 1 to day 9 for a total of nine days.

[1] = system: C-26 colon adenocarcinoma; experiment: In vivo activity against C-26 implanted intraperitoneally (Example 44); parameters: species or system mouse
Description: as §1, §2, §3
For C-26 colon adenocarcinoma, the tumor was implanted into CD2 F1 mice, IP and SC in separate trials. For the C-26 IP trial, the tumor was implanted IP on day 0. The test compound were administered four times a day IP from day 1 to day 9 for a total of nine days. BCNU was administered four times a day on days 1, 5 and 9.

[2] = system: C-26 colon adenocarcinoma; experiment: In vivo activity against C-26 implanted subcutaneously (Example 44); parameters: species or system mouse
Description: as §1, §2
For the C-26 SC trial, the tumor was implanted SC into mice on day 0. The test compound was administered four times a day IP from day 1 to day 9 for a total of nine days. BCNU was administered four times a day on days 1, 5, and 9. The mean tumor masses were determined on day 11 and day 21, and the experiment terminated on day 60. The mean tumor mass (MTM) inhibition value of % MTM(T/C) was calculated, which value represents the ratio of treated to control group MTM's expressed as a percentage.

[3] = system: P388-ADR(0.0), ADRIAMYCIN-resistant variant of P388; experiment: In vitro cytotoxicity (MTT), P388-ADR(0.0); type: cell-based; conditions: Mus musculus, 72 h, inoculum grown in drug-free medium, Table 2
Description: (§4) Metabolic activity was measured by the cells' ability to reduce the tetrazolium dye, 3-(4,5-dimethylthiazol-2-yl)-2,5-diphenyltetrazolium bromide (MTT), to a quantifiable colored formasan derivative. Surviving cells reduce the MTT dye. The inhibitory concentrations of killing 50% of the cells (IC50 s) were calculated. Testing was in accord with the following protocol:
(§5) Test compounds and a reference antineoplastic agent, ADRIAMYCIN (doxorubicin hydrochloride), were dissolved in dimethyl sulfoxide (DMSO) and diluted, first with Earle's Balanced Salt Solution, followed by culture medium, to twice the highest concentration of the compound to be tested. From this concentrated stock, two-fold serial dilutions were prepared in 96-well microtiter trays, each well containing twice the desired final concentration of the compound. Each concentration was tested in triplicate and compared to triplicate drug-free controls.
(§6) The cells were grown in the same medium used for diluting the compounds. Adherent cells were harvested by trypsinization according to the following procedure:
(§7) After harvesting by trypsinization, viable cell counts were determined and cell density was adjusted to 25,000 cells/mL. Inoculum (0.1 mL) was then added to each well for a final concentration of 2,500 cells per well. Addition of the inoculum was used to dilute the test compounds to the desired concentration.
(§8) Microtiter trays were incubated for three days at 36° C. in a humidified atmosphere containing 5% carbon dioxide.
(§9) After three days, 20 microliters of 5 mg/mL MTT in phosphate-buffered solution were added to each well of the microtiter trays. The microtiter trays were then returned to the incubator for two to four hours to allow the surviving cells to reduce the dye. After this incubation, both the medium and the unreduced dye were removed by aspiration. DMSO was added to each well to dissolve the water-insoluble, colored end product of the dye reduction for spectrophotometric measurement at 570 nm.
(§10) Compounds from Examples 4, 6, 8, 9 and 10 were additionally tested against human and murine tumor cell lines A549, HT-29, P388-D1, P388, P388-ADR(0.0), P388-ADR(0.1) and B16F109. (P388 is a mouse leukemia cell line similar to P388-D1, but animal-passaged; P388-ADR (0.0) is an ADRIAMYCIN-resistant variant of P388, the inoculum of which is grown in drug-free medium; P388-ADR (0.1) is an ADRIAMYCIN-resistant variant of P388, the inoculum of which is grown in medium with 0.1 mcg.ml ADRIAMYCIN; and B16F10 is a mouse melanoma.) The results are presented in Table 2; as shown in the table, the compounds of the present invention are effective cytotoxic agents even against the ADRIAMYCIN-resistant cell line P388-ADR.

[4] = system: P388 mouse leukemia cell line; experiment: In vitro cytotoxicity (MTT), P388; type: cell-based; conditions: P388, 72 h, read-out: In Vitro Cytotoxicity (IC50)
Description: as §4, §5, §6, §7, §8, §9, §10

[5] = system: HT-29 human colon cancer cell line; experiment: In vitro cytotoxicity (MTT), HT-29; type: cell-based; conditions: HT-29, 72 h, read-out: In Vitro Cytotoxicity (IC50), HT-29, Table 2, ADR: average of two tests
Description: as §4, §5, §6, §7, §8, §9
(§11) The results obtained which clearly show the cytotoxicity of the compounds of Examples 5, 6, 7 and 8 against […] tumor cell lines A549, HCT-8, HT-29 and P388-D1, are illustrated in Table 1. (A549 is a human lung cancer cell line; HCT-8 is a human colon cancer cell line; HT-29 is a human colon cancer cell line; and P388-D1 is a mouse leukemia cell line.)

B16F10 mouse melanoma = experiment: In vitro cytotoxicity (MTT), B16F10; type: cell-based; conditions: B16-F10, 72 h, read-out: In Vitro Cytotoxicity (IC50)
Description: as §4, §5, §6, §7, §8, §9, §10

[6] = system: A549 human lung cancer cell line; experiment: In vitro cytotoxicity (MTT), A549; type: cell-based; conditions: A549, 72 h, read-out: In Vitro Cytotoxicity (IC50), A549, Table 2, ADR: average of two tests
Description: as §4, §5, §6, §7, §8, §9, §11

[7] = 10 mg/kg, compound 37 days 1-9, BCNU days 1, 5, 9
[8] = day 11, 10 mg/kg, compound 37 days 1-9, BCNU days 1, 5, 9
[9] = day 21, 10 mg/kg, compound 37 days 1-9, BCNU days 1, 5, 9

solubility (Aqueous solubility): > 47.8 mg/mL
Structure (SMILES): CCC[C@H](N)C(=O)N[C@@H](C)C(=O)NC1CCN(c2c(F)cc3c(=O)c(C(=O)O)cn4c3c2Oc2ccccc2-4)C1 (stereo partly drawn) [Example 40, 1-(3-Norvalylalanylaminopyrrolidin-1-yl)-2-fluoro-4-oxo-4H-quino[2,3,4-i,j][1,4]benzoxazine-5-carboxylic acid hydrochloride]

solubility (Aqueous solubility): 11.1 mg/mL
Structure (SMILES): CCC[C@H](NC(=O)[C@@H](N)CCC)C(=O)NC1CCN(c2c(F)cc3c(=O)c(C(=O)O)cn4c3c2Oc2ccccc2-4)C1 (stereo partly drawn) [Example 38, 1-(3-Norvalylnorvalylaminopyrrolidin-1-yl)-2-fluoro-4-oxo-4H-quino[2,3,4-i,j][1,4]benzoxazine-5-carboxylic acid hydrochloride]

Structure (SMILES): O=c1[nH]cc(F)c(=O)[nH]1 [5-Fluorouracil, 5-fluorouracil, reference compound]
% MST(T/C) (P388 ascitic leukemia): 160% and 186.67%

Structure (SMILES): C[C@H](N)C(=O)N[C@@H](C)C(=O)NC1CCN(c2c(F)cc3c(=O)c(C(=O)O)cn4c3c2Oc2ccccc2-4)C1 (stereo partly drawn) [Example 37, 1-(3-Alanylalanylaminopyrrolidin-1-yl)-2-fluoro-4-oxo-4H-quino[2,3,4-i,j][1,4]benzoxazine-5-carboxylic acid hydrochloride]
test animals that survived the trial (M5076 ovarian sarcoma; 12.5 mg/kg (footnote b)): One of ten test animals survived the trial
% MST(T/C) (M5076 ovarian sarcoma; 12.5 mg/kg IP days 1-9): 215%
MST (M5076 ovarian sarcoma; 12.5 mg/kg IP days 1-9): 44.6
Toxicity due to the test compound (M5076 ovarian sarcoma; 25 mg/kg (footnote a)): Toxicity due to the test compound noted
% MST(T/C) (M5076 ovarian sarcoma; 25 mg/kg IP days 1-9): 45%
MST (M5076 ovarian sarcoma; 25 mg/kg IP days 1-9): 9.3
Toxicity due to the test compound (M5076 ovarian sarcoma; 50 mg/kg (footnote a)): Toxicity due to the test compound noted
% MST(T/C) (M5076 ovarian sarcoma; 50 mg/kg IP days 1-9): 21%
MST (M5076 ovarian sarcoma; 50 mg/kg IP days 1-9): 4.4
Toxicity due to the test compound (M5076 ovarian sarcoma; 100 mg/kg (footnote a)): Toxicity due to the test compound noted
% MST(T/C) (M5076 ovarian sarcoma; 100 mg/kg IP days 1-9): 15%
MST (M5076 ovarian sarcoma; 100 mg/kg IP days 1-9): 3.2
improvement in survival time (M5076 ovarian sarcoma; M5076 IP, in words): significant improvement in survival time
solubility (Aqueous solubility): 28.2 mg/mL
% MST(T/C) ([1]; 2.5 mg/kg IP days 1-9): 147%
MST ([1]; 2.5 mg/kg IP days 1-9): 30.3
% MST(T/C) ([1]; 5 mg/kg IP days 1-9): 174%
MST ([1]; 5 mg/kg IP days 1-9): 36.0
% MST(T/C) [1, 7]: 195%
MST [1, 7]: 40.2
test animals that survived the trial ([1]; 20 mg/kg (footnote a)): Three of ten test animals survived the trial
% MST(T/C) ([1]; 20 mg/kg IP days 1-9): 197%
MST ([1]; 20 mg/kg IP days 1-9): 40.7
improvement in survival time ([1]; C-26 IP, in words): significant improvement in survival time
% MTM(T/C) ([2]; day 11, 2.5 mg/kg): 97%
MTM ([2]; day 11, 2.5 mg/kg): 302 mg
% MTM(T/C) ([2]; day 11, 5 mg/kg): 66%
MTM ([2]; day 11, 5 mg/kg): 205 mg
% MTM(T/C) [2, 8]: 24%
MTM [2, 8]: 74 mg
% MTM(T/C) ([2]; day 11, 20 mg/kg): 0%
MTM ([2]; day 11, 20 mg/kg): 0 mg
% MTM(T/C) ([2]; day 21, 2.5 mg/kg): 79%
MTM ([2]; day 21, 2.5 mg/kg): 2617 mg
% MTM(T/C) ([2]; day 21, 5 mg/kg): 75%
MTM ([2]; day 21, 5 mg/kg): 2462 mg
% MTM(T/C) [2, 9]: 41%
MTM [2, 9]: 1336 mg
% MTM(T/C) ([2]; day 21, 20 mg/kg): 5%
MTM ([2]; day 21, 20 mg/kg): 169 mg
activity against tumor implanted subcutaneously ([2]; days 11 and 21, in words): significantly active

Structure (SMILES): N[C@@H]1CCN(c2c(F)cc3c(=O)c(C(=O)O)cn4c3c2Oc2ccccc2-4)C1 [Example 17, 1-((3R)-3-aminopyrroidin-1-yl)-2-fluoro-4-oxo-4H-quino[2,3,4-i,j][1,4]benzoxazine-5-carboxylic acid hydrochloride]
IC50 [3]: 0.1 µg/mL
IC50 [4]: 0.021 µg/mL
IC50 [5]: 0.068 µg/mL
IC50 (B16F10 mouse melanoma): 0.011 µg/mL
IC50 [6]: 0.042 µg/mL

Structure (SMILES): CCC[C@H](N)C(=O)NC1CCN(c2c(F)cc3c(=O)c(C(=O)O)cn4c3c2Oc2cc(C)ccc2-4)C1 (stereo partly drawn) [Example 10, 1-(3-norvalylaminopyrrolidin-1-yl)-2-fluoro-9-methyl-4-oxo-4H-quino[2,3,4-i,j][1,4]benzoxazine-5-carboxylic acid hydrochloride]
IC50 [3]: 0.447 µg/mL
IC50 [4]: 0.108 µg/mL
IC50 [5]: 0.0875 µg/mL
IC50 (B16F10 mouse melanoma): 0.0573 µg/mL
IC50 [6]: 0.187 µg/mL
